Residues, ends and D or L forms follow the SMILES beside them. *: point of attachment. Cbz = O=C(OCc1ccccc1)*; CH2F = FC*
Tests used:
DR5 = molecular target: T1, DR5 (Homo sapiens, UniProt O14763); assay: ELISA binding of TRAIL and TRA-8 to the receptors
T1 construct: fusing cDNA from residues 1-180 of the extracellular portion of DR5; made in house; host or cells: QBI-293A cells, recombinant adenovirus (pAdΔDR5-Fc)
Description: (§1) The reactions are developed by TMB substrate buffer and measured by the Benchmark Microplate Reader (BioRad). The Kd values are estimated by the one-site binding model of non-linear regression using GraphPad Prism® software (GraphPad Software, San Diego, Calif.).

DR4 = molecular target: T2, DR4 (Homo sapiens, UniProt O00220); assay: ELISA binding of TRAIL and TRA-8 to the receptors
T2 construct: a fusion protein comprising the extracellular domain of human DR5 or DR4 and the Fc region of human IgG1; human IgG1 Fc (Ig)
T2 sequence (O00220 24-239 limits assumed): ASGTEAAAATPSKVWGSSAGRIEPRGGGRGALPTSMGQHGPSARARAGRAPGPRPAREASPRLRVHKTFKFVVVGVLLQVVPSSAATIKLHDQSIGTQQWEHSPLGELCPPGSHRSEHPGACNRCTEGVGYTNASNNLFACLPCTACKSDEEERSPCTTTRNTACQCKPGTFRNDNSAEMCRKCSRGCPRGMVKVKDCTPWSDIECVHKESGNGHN
Method: as §1, with “ELISA plates are coated with 2 μg/ml of DR4-Ig or DR5-Ig fusion protein overnight. […] The reactions” for “The reactions”

[1] = system: B lymphoma cell lines SKW6.4, EB-3, and Raji; assay: Apoptosis susceptibility (ATPLite, overnight); type: cell-based, human; conditions: TRAIL plus crosslinker
Method: (§2) Cell viability is determined using (1) the ATPLite® kit according to the manufacturer's instructions (Packard Instruments, Meriden, Conn.); (2) the MTT Cell proliferation/viability kit (Sigma); or (3) PI staining of dead cells and analyzed by flow cytometry. At end of culture, cells are stained with 10 μg/ml PI and PI negative cells are gated as viable cells. For analysis of condensed nuclei of hepatocytes, cells are stained with 10 ng/ml Hoechst 33352 (Molecular Probes) and analyzed by flow cytometry.

Daudi = assay: Apoptosis susceptibility (ATPLite, overnight); type: cell-based, human; conditions: TRAIL plus crosslinker
Method: as §2

H-9 cells = assay: Apoptosis susceptibility (ATPLite, overnight); type: cell-based, human; conditions: TRAIL plus crosslinker
Method: as §2

Jurkat and CEM-6 = assay: Apoptosis susceptibility (ATPLite, overnight); type: cell-based, human; conditions: TRAIL plus crosslinker
Method: as §2

Molt-4 and U937 cells = assay: Apoptosis susceptibility (ATPLite, overnight); type: cell-based, human; conditions: TRAIL plus crosslinker
Method: as §2

[2] = system: Primary peripheral blood T cells; assay: Apoptosis susceptibility (ATPLite, overnight); type: cell-based, human; conditions: TRAIL plus crosslinker
Method: as §2

U87, U937 and Molt-4 = assay: Apoptosis susceptibility (ATPLite, overnight); type: cell-based, human
Method: as §2

[3] = system: glioma cell lines Hs683 and U251-MG; assay: Apoptosis susceptibility (ATPLite, overnight); type: cell-based, human
Method: as §2

primary B cells = assay: Apoptosis susceptibility (ATPLite, overnight); type: cell-based, human; conditions: TRAIL plus crosslinker
Method: as §2

OA72M cells = assay: Apoptosis of primary synovial cells; type: cell-based, human
Description: (§3) Cell viability is the percentage of the cpm of treated cells versus the cpm of untreated cells.
(§4) The expression of DR5 on a panel of eight primary cultured synovial cells from patients with RA is compared with that on eight primary cultured synovial cells from patients with osteoarthritis (hereinafter referred to as “OA”). The eight human primary RA synovial cell cultures RA-1014, RA-1016, RA-1021, RA-512, RA-707, RA-811, RA-716, and RA-929 are kindly provided by Dr. M. Ohtsuki (Sankyo Co. Ltd., Tokyo, Japan) and cultured in DMEM supplemented with 10% FCS, penicillin, streptomycin, and glutamine. The […] OA synovial cell primary cell cultures are isolated from the synovial tissues of OA patients by a standard collagenase method and cultured under the same conditions. The passage number of all primary cells is under 10. The expression of DR5 is determined by FACs analysis as described in Example 5.

[4] = system: RA-1014, RA-811, RA-716, and RA929; assay: Apoptosis of primary synovial cells; type: cell-based, human; conditions: high concentrations (>50 ng/ml)
Description: as §3, §4

[5] = system: SV40 transformed synovial cells; assay: Apoptosis of synovial cells; type: cell-based, human; conditions: data not shown
[6] = system: non-transformed fibroblast cells; assay: Apoptosis of fibroblast cells; type: cell-based
NF-κb = assay: Gel-shift assay of NF-κb activation in RA synovial cells; type: cell-based, human; conditions: 50 ng/ml TRAIL, Fas ligand or TRA-8; 20 ng/ml TNF-a
Method: There is considerable evidence to support the concept that there are close links between the signaling of apoptosis and the signaling of proliferation (45). It has been established that DR5 is able to activate a NF-kb pathway in addition to apoptosis signaling transduction, and that NF-κb activation may be able to transduce an anti-apoptosis signal. Therefore a gel-shift assay is carried out. […] The nuclear extracts are prepared and incubated with the […] [^32P]-labeled oligo-DNA probe. The results are analyzed using the cyclone phospha-imager (TopCount NXT, Packard Instrument Company, CT).

MMP-1, 3, and 13 = assay: Production of MMPs by RA synovial cells (ELISA); type: cell-based, human; conditions: overnight; 50 ng/ml interleukin 1b, 10 ng/ml TNF-a, 50 ng/ml TRAIL or TRA-8; vs medium control
Method: Thus, it is possible that TRAIL, like TNF-α, may serve as a pro-inflammatory cytokine. […] The levels of the MMP-1 and MMP-3 in the culture supernatants are determined by the ELISA kits.

normal human hepatocytes = assay: Hepatocellular toxicity, cell viability (ATPLite); type: cell-based
Description: For 24-hour cell viability assays, fresh normal human hepatocytes in 96-well plates were purchased from In Vitro Technology (Baltimore, Md.). […] For 6-hour viability assays, normal hepatocytes or hepatocellular cancer cells are isolated from fresh surgical specimens collected from UAB Tissue Procurement Center. All reagents for isolation of human hepatocytes including hepatocytes perfusion buffer, digest medium, washing medium, and attachment medium were purchased from Gibco. The tissue slides are digested in the Hepatocyte Digest Medium at 37° C. with shaking (50 rpm) for one hour. The isolated hepatocytes are harvested by low speed centrifugation (50 g, 3 min), and washed with the Hepatocyte Washing Medium six times. Single cell suspension of hepatocytes are cultured in the Attachment Medium containing 10% FCS in 96-well Matrigel plates (BD) for six hours. Non-attached hepatocytes are removed by twice washing with pre-warmed attachment medium.

HepG2 cells = assay: Cell viability (ATPLite); type: cell-based, human; conditions: 8-hour culture period
[7] = Induction of hepatitis in vivo by tetracycline-inducible adenoviral vectors; design: species or system B6 mice; conditions: 10 μg in Ad/TRAIL inoculated mice, AST at 24 hours
Method: 8-10 week-old female B6 mice are intravenously injected with 10^9 pfu of Ad/hTRAIL with the equal number of Ad/Tet-on. Mice are fed with different concentrations of tetracycline in their drinking water immediately after inoculation of adenoviral vectors. Liver injury is determined by serum levels of AST using an AST diagnostic kit (Sigma). Expression of TRAIL is determined by Northern blot analysis.

Jurkat cells = assay: Jurkat cell viability after overnight culture (ATPLite, MTT, PI exclusion); type: cell-based, human; conditions: 50 ng/ml TRA-8 overnight plus caspase inhibitor
Method: as §2

[8] = system: 2LMP human breast cancer xenografts; assay: TRA-8 therapy alone or with chemotherapy or radiation, breast cancer xenografts; type: in vivo, athymic nude mice
Method: Athymic nude mice were injected s.c. with 3×10^7 2LMP cells. […] The growth of tumors was monitored over time. […] Tumor size and regression rates were determined.
Data from 6 independent experiments were analyzed by individual experiment. Treatment combinations were compared with respect to in vivo anti-tumor efficacy, i.e., inhibition of tumor growth, which was measured as three endpoints; extension of tumor doubling times, percentage of tumor regressions, and growth rates over time. The actual number of days at which the tumor doubled in surface area (product of two diameters) relative to baseline on day 7 after tumor cell injection was used in the doubling time analysis. The nonparametric Kruskal-Wallis test was used for median tumor doubling time comparisons between treatments. Fisher's exact test was used to compare the proportions of tumor regressions and relapse-free regressions across treatment groups. To determine if any combination therapy produced significant synergistic inhibition of tumor growth, i.e., more than additive, the growth curves from the serial area measurements were compared using a linear mixed model approach over the first 3 weeks after start of therapy (Lindsey, J. K. Models for Repeated Measurements, pp. 100-142, Oxford, 1993). To test for synergistic effects of the combination therapies, an interaction term was included in the model. If the interaction term was significant and the effect was inhibition of growth at a rate greater than additive then the interaction was considered synergistic.
A total of 166 animals, 10 treatment groups, and 6 independent experiments were included in the aggregate analysis. Treatment combinations were compared with respect to in vivo anti-tumor efficacy. The median tumor doubling times were analyzed using the Kruskal-Wallis test and Fisher's exact test was used to compare the proportions of tumor regressions and relapse-free regressions across treatment groups.

2LMP xenografts = assay: Analysis of apoptosis in xenografts (TUNEL); type: in vivo, athymic nude mice; conditions: day 14
Method: One group of mice was untreated. The xenografts were dissected for the study of apoptosis on day 14 after tumor cell injection. The reason for the substantial reduction in treatment intensity compared to our standard treatment protocol was to allow adequate tumor tissue for analysis on day 14. Tunel assay for apoptosis in tumor xenografts was performed as follows. Five-micron paraffin sections of tissue were mounted on Superfrost/Plus slides and heated at 58° C. for 1 h. Tissue sections were deparaffinized in three changes of xylene and rehydrated with one change of absolute ethanol, 95% ethanol, and 70% ethanol, each in 5-min increments. Then, the sections were placed in Tris-buffered saline (0.5M Tris base, 0.15 M NaCl, 0.0002% Triton X-100™, pH 7.6). Apoptotic nuclei were detected using an Apop Tag Peroxidase kit (Intergen, Purchase, N.Y.). Proteinase K (20 μg/ml in distilled deionized H2O) was added to the tissue specimens and incubated at room temperature for 15 min. Endogenous peroxidases were quenched with an aqueous solution of 3% hydrogen peroxide for 5 min. Sections were treated with an equilibration buffer for 30 min and then incubated with the TdT/enzyme (diluted in labeling reaction mix) for 1 h at 37° C. using parafilm covers. During this incubation, the TdT enzyme binds the 3′-OH ends of DNA fragments and catalyzes the addition of digoxigenin-labeled and unlabeled deoxynucleotides. Negative controls were incubated with distilled H2O (diluted in labeling reaction mix) instead of the TdT enzyme. A stop buffer was added for 10 min at room temperature to terminate the labeling reaction. An anti-digoxigenin conjugate was added to each slide for 30 min. The chromagen 3,3′ DAB was used to visualize the labeled 3′ OH end of DNA fragments. The slides were then rinsed in deionized water and lightly counterstained with hematoxylin, dehydrated using graded alcohols and xylene and coverlsipped using Permount. Approximately 10 random fields were evaluated for percentage of Tunel stained and percentage of intensely stained apoptotic bodies throughout the tissue.

[9] = aggregate of 6 experiments, number of animals (%)
[10] = aggregate of 6 experiments, relative to day 7

T1 sequence (O14763 56-180): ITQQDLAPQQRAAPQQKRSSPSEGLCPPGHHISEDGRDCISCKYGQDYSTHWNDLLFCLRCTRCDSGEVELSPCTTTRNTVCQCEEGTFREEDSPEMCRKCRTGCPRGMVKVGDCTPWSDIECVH

TRAIL: soluble recombinant human TRAIL (aa 95 to 281) FLAG-tagged fusion protein, Alexis; used with anti-FLAG crosslinker
binding to immobilized DR5 (DR5): bound comparably
binding to DR4 (DR4): bound to DR4
susceptibility to apoptosis [1]: very susceptible
susceptibility to apoptosis (Daudi): much less susceptible
susceptibility to apoptosis (H-9 cells): resistant
susceptibility to apoptosis (Jurkat and CEM-6): highly susceptible
susceptibility to apoptosis (Molt-4 and U937 cells): partially susceptible
susceptibility to apoptosis [2]: resistant
susceptibility to apoptosis (U87, U937 and Molt-4): exhibited sensitivity
susceptibility to apoptosis [3]: resistant
susceptibility to apoptosis (primary B cells): did not undergo apoptosis
susceptibility to apoptosis (OA72M cells): completely resistant
cell death [4]: ~100%
susceptibility to apoptosis [5]: susceptible
susceptibility to apoptosis [6]: resistant
NF-κb activation (NF-κb): activated in a time-dependent fashion
production/release of MMPs (MMP-1, 3, and 13): not associated with increased release
hepatocytes killed in the presence of cycloheximide (normal human hepatocytes; 1 μg/ml TRAIL or TRA-8, 1 μg/ml cycloheximide, four-hour culture): greater than 70%
hepatocytes killed (normal human hepatocytes; 1 μg/ml, end of 24-hour culture, TRAIL plus crosslinker): more than 80%
hepatocytes killed (normal human hepatocytes; 6-hour culture, 500 ng/ml): Over 20%
cells killed (HepG2 cells): ~100%
liver injury after intravenous injection [7]: did not exhibit increased liver injury

CC(NC(=O)C(NC(=O)OCc1ccccc1)C(C)C)C(=O)NC(CC(=O)O)C(=O)CF (stereo not drawn) [Z-VAD] (Cbz-Val-Ala-Asp-CH2F; configuration not given here)
inhibition of TRA-8-induced cell death (Jurkat cells): completely inhibited

COc1cccc2c1C(=O)c1c(O)c3c(c(O)c1C2=O)C[C@@](O)(C(=O)CO)C[C@@H]3O[C@H]1C[C@H](N)[C@H](O)[C@H](C)O1 [Adriamycin, adriamycin (doxorubicin)]
Complete Regressions No relapse (%) [8, 9]: 0
Complete Regressions Total (%) [8, 9]: 0
Tumor Doubling Time (mean) [8, 10]: 17 days
Tumor Doubling Time (median) [8, 10]: 18 days
inhibition of tumor growth compared to untreated controls ([8]; individual experiments, TRA-8 200 μg i.p. x6, adriamycin 6 mg/kg, paclitaxel 20 mg/kg, 3 Gy 60Co, Kruskal-Wallis on doubling times): did not differ from controls
TUNEL stained cells (2LMP xenografts; 100 μg TRA-8 days 7, 10, adriamycin 3 mg/kg or paclitaxel 10 mg/kg days 8, 11, untreated 4%): 8%
intensely stained cells (2LMP xenografts; same regimen, untreated 1%): 6%

TNF-α
NF-κb activation (NF-κb): activated in a time-dependent fashion
production/release of MMPs (MMP-1, 3, and 13): increased

IL-1b: proinflammatory cytokine
production/release of MMPs (MMP-1, 3, and 13): increased

B1: Fas ligand: soluble Fas ligand used with enhancer/crosslinker (protein, UniProt P48023 103-281, looked up)
extracellular domain: QLFHLQKELAELRESTSQMHTASSLEKQIGHPSPPPEKKELRKVAHLTGKSNSRSMPLEWEDTYGIVLLSGVKYKKGGLVINETGLYFVYSKVYFRGQSCNNLPLSHKVYMRNSKYPQDLVMMEGKMMSYCTTGQMWARSSYLGAVFNLTSADHLYVNVSELSLVNFEESQTFFGLYKL
modifications: extracellular domain
notes: soluble Fas ligand used with enhancer/crosslinker
NF-κb activation (NF-κb): unable to induce
difference in susceptibility among normal hepatocytes, hepatocellular carcinoma cells, and HepG2 cells (normal human hepatocytes; Fas-mediated apoptosis, 6 hours): no significant difference

Source: patent US7704502B2, “Combinations of antibodies selective for DR5 and other therapeutic agents” (The UAB Research Foundation, priority 2000, dated 2010)
